# Results as given in patent publication US7507555B2, “Probe for detecting and quantifying lipid second messenger and method of detecting and quantifying lipid second messenger using the same” (Japan Science and Technology Agency, priority 2003, dated 2009).
# Experiments:
# [1] = tested on: PIP3; assay: CFP/YFP emission ratio time course after PDGF stimulation of probe-expressing CHO-PDGFR cells; type: cell-based, Chinese hamster; settings: for PIP3 in plasma membranes and endomembranes: stimulation by other peptide ligands instead of PDGF
# Protocol: Ovarian cells of Chinese hamster (CHO) were cultured in Ham's F-12 medium supplemented with 10% fetal calf serum (FCS) at 37° C. in 5% CO2. The resulting CHO-PDGFR cells were plated onto glass-bottomed dishes, each of Fllip-pm, Fllip-pmR284C, Fllip-del and Fllip-em expression vectors were transfected with LipofectAMINE2000 reagent (manufactured by Life Technology) and left for 24 hours at 37° C. in 5% CO2.
# After serum starvation with serum-free incubating medium, the medium was replaced with a Hank's balanced salt solution. Then, in accordance with a method already reported by the inventors (such as Non-Patent Documents 12 and 13), the cells were imaged at room temperature on a Carl Zeiss Axiovert 135 microscope with a cooled CCD camera, MicroMAX (Roper Scientific lnc, Tucson, Ariz.), controlled by MetaFluor. (Universal Imaging, West Chester, Pa.). The fluorescence images were obtained through 480±15 nm and 535±12.5 nm filters with a 40× oil immersion objective (Carl Zeiss, Jena, Germany). YFP images were detected by a confocal laser scanning microscope LSM 510 (Carl Zeiss).
# Response of Fllip-pm to PIP3 produced by physiological stimulation was examined.
# Fllip-pm was expressed in CHO-PDGFR cells stably expressing platelet-derived growth factor receptor (PDGFR). PDGF treatment promotes dimerization of PDGFR that results in phosphorylation of multiple tyrosine residues of PDGFR and its activation. PI3K is recruited to these tyrosine phosphorylation sites through its Src-homology 2 (SH2) domain, resulting in its activation (Schlessinger, J. (2000), Cell, 103, 211-225).
# The time course of CFP/YFP-emission ratio when PDGF (50 ng/mL) was added to a cell expressing Fllip-pm at plasma membrane are shown in FIG. 6 and FIG. 7.
# According to the same method as in Examples 4 and 5, response of Fllip-pmR284C, of which PHD was mutated not to bind to PIP3, was examined.
# Fllip-em was expressed in the CHO-PDGFR cells by the same method as in Example 2. After that, the cells were stimulated with PDGF by the same method as in Example 5 and the time course of CFP/YFP emission ratio was measured.
# [2] = tested on: C1B domain derived from PKC; assay: Response of DAG-fllip-pm and DAG-fllip-em to phorbol ester (PMA); type: cell-based; settings: phorbol ester (PMA) added
# Protocol: It has been known that C1B domain derived from PKC is selectively bound to DAG. Therefore, this domain was selected as an LBD and the lipid second messenger detecting- and quantifying-probe (hereinafter, referred to as DAG-Fllip) was prepared. Localization domains to the plasma membrane and endomembranes are linked with DAG-fllip to prepare DAG-fllip-pm and DAG-fllip-em. After that, in order to confirm whether the DAG-fllip-pm and the DAG-fllip-em respond to DAG, the DAG-fllip-pm and the DAG-fllip-em were evaluated by using phorbol ester (PMA), which is a substance having a membrane permeability, and specifically bound to C1B domain.
# [3] = PDGF 50 ng/mL, Fllip-pm at plasma membrane of CHO-PDGFR cells
compound,measurement,setting,value
PDGF,CFP/YFP emission ratio,[1]; [3],decreased immediately
same,time for CFP/YFP emission ratio to reach a plateau,[1]; [3],300 s
same,extent of PIP3 increase in the endomembranes relative to that in the plasma membrane,[1]; upon PDGF stimulation,twice to three times
insulin: other peptide ligand,PIP3 in plasma membranes and endomembranes,[1],induced the PIP3 increase
epidermal growth factors: other peptide ligand,PIP3 in plasma membranes and endomembranes,[1],induced the PIP3 increase
CCCCCCCCCCCCCC(=O)O[C@@H]1[C@@H](C)[C@@]2(O)[C@@H](C=C(CO)C[C@]3(O)C(=O)C(C)=C[C@@H]23)[C@@H]2C(C)(C)[C@]12OC(C)=O [phorbol ester],fluorescence intensity ratio (CFP/YFP) of DAG-fllip-em,[2],decreased
same,fluorescence intensity ratio (CFP/YFP) of DAG-fllip-pm,[2],decreased
